According to patent US20260184693A1, “INHIBITORS OF SOLUTE CARRIER FAMILY 6A MEMBER 19 (SLC6A19) AND METHODS OF USE THEREOF” (Maze Therapeutics, Inc., priority 2022, published 2026):

Assays:
human SLC6A19 [1] = target: T1, human SLC6A19 (Homo sapiens, UniProt Q695T7); experiment: Example B-1: L-[3H]leucine uptake, liquid scintillation, in CHO cells with doxycycline-inducible expression of human SLC6A19 and TMEM27; type: cell-based; details: read-out: SLC6A19_Radioligand Uptake Assay IC50
T1 construct: expressed in transfected cells
T1 sequence (Q695T7 1-634): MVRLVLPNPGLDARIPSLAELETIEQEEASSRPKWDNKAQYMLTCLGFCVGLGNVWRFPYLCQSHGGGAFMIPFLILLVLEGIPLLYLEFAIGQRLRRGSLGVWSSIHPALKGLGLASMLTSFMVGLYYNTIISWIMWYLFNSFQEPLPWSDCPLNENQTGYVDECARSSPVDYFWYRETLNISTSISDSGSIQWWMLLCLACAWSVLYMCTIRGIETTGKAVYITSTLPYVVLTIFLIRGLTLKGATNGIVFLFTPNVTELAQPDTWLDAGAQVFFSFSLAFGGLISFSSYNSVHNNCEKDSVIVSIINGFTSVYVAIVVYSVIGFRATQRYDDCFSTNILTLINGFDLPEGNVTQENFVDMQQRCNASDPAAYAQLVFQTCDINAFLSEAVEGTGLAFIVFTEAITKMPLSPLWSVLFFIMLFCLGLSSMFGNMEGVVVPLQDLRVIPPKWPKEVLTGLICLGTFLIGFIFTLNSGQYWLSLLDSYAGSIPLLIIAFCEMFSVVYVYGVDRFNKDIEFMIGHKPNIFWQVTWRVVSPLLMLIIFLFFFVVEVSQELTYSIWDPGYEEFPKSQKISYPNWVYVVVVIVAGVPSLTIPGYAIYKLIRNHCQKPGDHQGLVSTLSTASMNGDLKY
T1 sequence (Q9HBJ8 15-222 partner): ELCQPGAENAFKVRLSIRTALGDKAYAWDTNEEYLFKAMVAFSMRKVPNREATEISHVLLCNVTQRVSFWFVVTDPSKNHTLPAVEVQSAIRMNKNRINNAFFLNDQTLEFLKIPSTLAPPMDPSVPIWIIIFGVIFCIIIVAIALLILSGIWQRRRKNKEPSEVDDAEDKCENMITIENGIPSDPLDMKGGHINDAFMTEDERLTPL
Experimental: CHO cells with doxycycline-inducible expression of human SLC6A19 and TMEM27 were maintained in T150 cell culture treated flasks using cell culture media, which consisted of 1×DMEM/F12 (Gibco, 11330057), 10% Tet System-Approved FBS (Gibco, A4736401), 100 U/mL Penicillin-Streptomycin (Gibco, 15140122), 1×GlutaMAX™ Supplement (Gibco, 35050061), 1 mM Sodium Pyruvate (Gibco, 11360070), 1.1 mg/mL Sodium Bicarbonate (Gibco, 25080094), 5 μg/mL Blasticidin (InvivoGen, ant-bl-1), 150 μg/mL Hygromycin B Gold (InvivoGen, ant-hg-5), and 500 μg/mL G418 (Sigma-Aldrich, G8168-100 mL). In preparation for the assay, this media was aspirated and 5 mL of TryμLE™ Express Enzyme (Gibco, 12605010) was added to each flask to initiate cell dissociation. The flasks were then incubated (humidified, 37° C. with 5% CO2) for 2 minutes. After incubation, 10 mL of pre-warmed cell culture media was added to each flask. The cell suspension was collected and centrifuged for 5 minutes at 200xg.
The supernatant was aspirated and the pellet was resuspended in 5 mL pre-warmed cell culture media. The resuspended cells were counted using the Countess Cell Counting Chamber (Invitrogen) and the cell concentration of the suspension was readjusted to 1 million live cells/mL using pre-warmed cell culture media. 25 uL/well (25,000 cells/well) of readjusted cell suspension was dispensed into Poly-D-Lysine 384-well white/clear plates (Corning, 354660) using a MultiDrop Combi (Thermo Electron Corp). To induce expression of Human SLC6A19 and TMEM27, 25 uL/well of cell culture media containing 2 μg/mL doxycycline was added to the first 23 columns of each plate resulting in a final concentration of […] doxycycline. 25 μL/well of cell culture media was added to the last column of each plate, to act as negative control wells for Human SLC6A19 and TMEM27 expression. Assay plates were then incubated (humidified, 37° C. with 5% CO2) for 18 hours. After incubation, the media was aspirated and the wells were washed 4 times with pre-warmed HBSS (Sigma-Aldrich, H8264-1L) using an Apricot S-Pipette S2 (Apricot Designs), such that 5 uL/well HBSS was remaining at the end of each wash. […] At this step, the final in-well DMSO concentration in the assay plate is 0.5%. All compounds were plated in a duplicate 8-point dilution series that consisted of 3-fold dilutions. […] Afterwards, 15 uL/well of 3.2 mM hot:cold leucine solution (1:15000 ratio of L-[3,4,5-3H(N)] Leucine (Perkin Elmer, NET460001MC) to L-Leucine (Sigma-Aldrich, L8912-25G) diluted with HBSS (Sigma-Aldrich, H8264-1L)) was added using the Viaflo 384 (Integra), for a final concentration of 1.6 mM hot:cold leucine solution. The plates were then incubated (humidified, 37° C. with 5% CO2) for 20 minutes to conduct the uptake reaction. Immediately after the incubation, the plates were washed 4 times with HBSS (Sigma-Aldrich, H8264-1L) using the ELx405 Microplate Washer (Biotek) to terminate the uptake reaction. After the washes, 50 uL/well Ultima Gold Scintillation Cocktail (Perkin Elmer, 6013326) was added to each well using the Viaflo 384 (Integra). The plates were then incubated (humidified, 37° C. with 5% CO2) on a plate shaker at 200 rpm for 2 hours. After incubation, the plates were removed from the shaker and kept at room temperature for 15 minutes.
Liquid scintillation analysis was performed using the MicroBeta2 Microplate Counter (Perkin Elmer). Activity (%) was derived by normalizing the average of positive control compound treated wells to 0% and the average of DMSO (negative control) wells to 100%. Collaborative Drug Discovery software was used for graphing data.

human SLC6A19 [2] = target: T1, human SLC6A19; experiment: Example B2: 13C6,15N-isoleucine uptake, RapidFire mass spectrometry, in CHO cells with doxycycline-inducible expression of human SLC6A19 and TMEM27; type: cell-based; details: read-out: SLC6A19_RapidFire Uptake Assay IC50
How it was run: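 Labelled isoleucine (13C6,15N; 2 mM added) was given 20 min at 37 °C, following a 20-min compound pre-treatment (10-point 2-fold series, duplicate). Cells were doxycycline-induced CHO co-expressing human SLC6A19 and TMEM27. Intracellular label was quantified by RapidFire-MS peak areas against a 13C-leucine standard.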

Row | IC50 (human SLC6A19 [1]) [nM] | IC50 (human SLC6A19 [2]) [nM] | SMILES
1 | 154 | 160 | CCn1ccc(C(=O)N2CCC[C@@H](N(C)C(=O)NCc3cc4cc(Cl)ccc4[nH]3)C2)n1 [Compound 240, (R)-3-((5-chloro-1H-indol-2-yl)methyl)-1-(1-(1-ethyl-1H-pyrazole-3-carbonyl)piperidin-3-yl)-1-methylurea]
2 | 359 | 273 | CCN(C(=O)NCc1cc2cc(Cl)c(OCc3ccon3)cc2[nH]1)[C@@H]1CCCN(C(C)=O)C1 [Compound 137, (R)-1-(1-acetylpiperidin-3-yl)-3-((5-chloro-6-(isoxazol-3-ylmethoxy)-1H-indol-2-yl)methyl)-1-ethylurea]
3 | 574 | 738 | CCc1ccc2[nH]c(CNC(=O)N(C)[C@@H]3CCCN(C(C)=O)C3)cc2c1 [Compound 217, (R)-1-(1-acetylpiperidin-3-yl)-3-((5-ethyl-1H-indol-2-yl)methyl)-1-methylurea]
4 | 183 | 195 | CC(=O)N1CCC[C@@H](N(C)C(=O)NCc2cc3cc(Cl)ccc3[nH]2)C1 [Compound 147, (R)-1-(1-acetylpiperidin-3-yl)-3-((5-chloro-1H-indol-2-yl)methyl)-1-methylurea]
5 | 975 | 805 | Cc1cc(C(=O)N2CCC[C@@H](N(C)C(=O)NCc3cc4cc(Cl)ccc4[nH]3)C2)nn1C [Compound 236, (R)-3-((5-chloro-1H-indol-2-yl)methyl)-1-(1-(1,5-dimethyl-1H-pyrazole-3-carbonyl)piperidin-3-yl)-1-methylurea]
6 | 1230 | 2770 | Cc1ocnc1C(=O)N1CCC[C@@H](N(C)C(=O)NCc2cc3cc(Cl)ccc3[nH]2)C1 [Compound 187, (R)-3-((5-chloro-1H-indol-2-yl)methyl)-1-methyl-1-(1-(5-methyloxazole-4-carbonyl)piperidin-3-yl)urea]
7 | 273 | 647 | CC(=O)N1CCC[C@@H](N(C)C(=O)NCc2cc3cc(C)ccc3[nH]2)C1 [Compound 218, (R)-1-(1-acetylpiperidin-3-yl)-1-methyl-3-((5-methyl-1H-indol-2-yl)methyl)urea]
8 | 804 | – | CC(C)NC(=O)N1CCC[C@@H](N(C)C(=O)NCc2cc3cc(Cl)ccc3[nH]2)C1 [Compound 213, (R)-3-(3-((5-chloro-1H-indol-2-yl)methyl)-1-methylureido)-N-isopropylpiperidine-1-carboxamide]
9 | 126 | – | CCNC(=O)N1CCC[C@@H](N(C)C(=O)NCc2cc3cc(Cl)ccc3[nH]2)C1 [Compound 209, (R)-3-(3-((5-chloro-1H-indol-2-yl)methyl)-1-methylureido)-N-ethylpiperidine-1-carboxamide]
10 | 637 | – | CN(C(=O)NCc1cc2cc(Cl)ccc2[nH]1)[C@@H]1CCCN(C(=O)CCO)C1 [Compound 215, (R)-3-((5-chloro-1H-indol-2-yl)methyl)-1-(1-(3-hydroxypropanoyl)piperidin-3-yl)-1-methylurea]
11 | 259 | – | CC(=O)N1CCC[C@@H](N(C)C(=O)NCc2cc3cc(C(F)(F)F)ccc3[nH]2)C1 [Compound 212, (R)-1-(1-acetylpiperidin-3-yl)-1-methyl-3-((5-(trifluoromethyl)-1H-indol-2-yl)methyl)urea]
12 | 494 | – | CN(C(=O)NCc1cc2cc(Cl)ccc2[nH]1)[C@@H]1CCCN(C(=O)c2nn(C)cc2F)C1 [Compound 113, (R)-3-((5-chloro-1H-indol-2-yl)methyl)-1-(1-(4-fluoro-1-methyl-1H-pyrazole-3-carbonyl)piperidin-3-yl)-1-methylurea]
13 | 367 | – | CN(C(=O)NCc1cc2cc(Cl)ccc2[nH]1)[C@@H]1CCCN(C(=O)C2CCOC2)C1 (stereo partly drawn) [Compound 112, 3-((5-chloro-1H-indol-2-yl)methyl)-1-methyl-1-((3R)-1-(tetrahydrofuran-3-carbonyl)piperidin-3-yl)urea]
14 | 441 | – | CC(=O)N1CCC[C@@H](N(C)C(=O)NCCc2ccc(Cl)c(-c3cc4ccccc4[nH]3)c2)C1 [Compound 206, (R)-1-(1-acetylpiperidin-3-yl)-3-(4-chloro-3-(1H-indol-2-yl)phenethyl)-1-methylurea]
15 | 807 | – | CN(C(=O)NCc1cc2cc(Cl)ccc2[nH]1)[C@@H]1CCCN(C(=O)N2CC(F)(F)C2)C1 [Compound 216, (R)-3-((5-chloro-1H-indol-2-yl)methyl)-1-(1-(3,3-difluoroazetidine-1-carbonyl)piperidin-3-yl)-1-methylurea]
16 | 418 | – | CN(C)C(=O)N1CCC[C@@H](N(C)C(=O)NCc2cc3cc(Cl)ccc3[nH]2)C1 [Compound 208, (R)-3-(3-((5-chloro-1H-indol-2-yl)methyl)-1-methylureido)-N,N-dimethylpiperidine-1-carboxamide]
17 | 608 | – | CC1CC(C(=O)N2CCC[C@@H](N(C)C(=O)NCc3cc4cc(Cl)ccc4[nH]3)C2)C1 (stereo partly drawn) [Compound 117, (R)-3-((5-chloro-1H-indol-2-yl)methyl)-1-methyl-1-(1-(3-methylcyclobutane-1-carbonyl)piperidin-3-yl)urea]
18 | 1620 | – | CN(C(=O)NCc1cc2cc(Cl)ccc2[nH]1)[C@@H]1CCCN(C(=O)C2(C)CCC2)C1 [Compound 118, (R)-3-((5-chloro-1H-indol-2-yl)methyl)-1-methyl-1-(1-(1-methylcyclobutane-1-carbonyl)piperidin-3-yl)urea]
19 | 688 | – | CN(C(=O)NCc1cc2cc(Cl)ccc2[nH]1)[C@@H]1CCCN(C(=O)c2cc(F)n(C)n2)C1 [Compound 115, (R)-3-((5-chloro-1H-indol-2-yl)methyl)-1-(1-(5-fluoro-1-methyl-1H-pyrazole-3-carbonyl)piperidin-3-yl)-1-methylurea]
20 | 515 | – | CN(C(=O)NCc1cc2cc(Cl)ccc2[nH]1)[C@@H]1CCCN(C(=O)C2CCO2)C1 (stereo partly drawn) [Compound 116, 3-((5-chloro-1H-indol-2-yl)methyl)-1-methyl-1-((3R)-1-(oxetane-2-carbonyl)piperidin-3-yl)urea]
